Like-named read-outs stand apart in the source and are kept apart here. Peptide text beside a SMILES is read from it.
Key:
[1] = system: μ opioid receptors (GPI); assay: Guinea pig isolated ileum (GPI) assay, opioid agonist;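 note: inhibition of electrically evoked contractions (0.1 Hz, 0.4 msec, supramaximal voltage) in organ baths at 37 °C, contraction height 3 min after each cumulative dose versus the 1 min before dosing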
[2] = molecular target: T1, human δ opioid receptors (hDOR) (Homo sapiens, UniProt P41143); assay: [35S]GTP-γ-S binding assay, hDOR; assay type: biochemical; details: for EC50: read-out: GTP hDOR EC50
T1 construct: expressed in transfected cells; host or cells: HN9.10 neuroblastoma cell line, pCDNA3, neomycin-selected clones

[3] = molecular target: T2, Substance P receptors (guinea pig NK1) (Cavia porcellus, UniProt P30547); assay: Guinea pig isolated ileum (GPI) assay with substance P stimulation in presence of 1 μM naloxone
T2 construct: from tissue; host or cells: guinea pig (Hartley) ileum LMMP, 1 μM naloxone present

[4] = molecular target: T3, δ opioid receptors (MVD) (Mus musculus, UniProt P32300); assay: Mouse isolated vas deferens (MVD) assay, opioid agonist
T3 construct: from tissue; host or cells: mouse (ICR) isolated vas deferens

[5] = molecular target: T4, rat μ opioid receptors (rMOR) (Rattus norvegicus, UniProt P33535); assay: biochemical; assay type: biochemical
T4 construct: expressed in transfected cells; host or cells: HN9.10 neuroblastoma cell line, pCDNA3, neomycin-selected clones

[6] = molecular target: T5, rat NK1 (rNK1) receptor (Rattus norvegicus, UniProt P14600); assay: Radioligand competition binding, [3H]substance P, rNK1/CHO membranes; details: Ki (nM) rNK1, Table 33
T5 construct: expressed in transfected cells; host or cells: CHO (rNK-1/CHO cell line from Dr. James Krause)

[7] = molecular target: T6, human NK1 receptor (hNK1) (Homo sapiens, UniProt P25103); assay: Radioligand competition binding, [3H]-Substance P, hNK1
T6 construct: expressed in transfected cells

[8] = Table 35, read-out: GPI/LMMP μ-agonist IC50
[9] = Table 36, read-out: GPI μ-agonist IC50
[10] = Table 32, read-out: GTP hDOR EMax
[11] = GPI/LMMP SP antagonist Ke (nM), Table 35
[12] = Table 32, read-out: GTP rMOR EC50
[13] = Table 32, read-out: GTP rMOR EMax
[14] = Table 39, read-out: GTP binding hDOR Emax
[15] = Table 39, read-out: GTP binding rMOR Emax
[16] = Table 39, read-out: GPI/LMMP opioid(mu) agonist (IC50; nM)

T2 sequence (P30547 whole entry): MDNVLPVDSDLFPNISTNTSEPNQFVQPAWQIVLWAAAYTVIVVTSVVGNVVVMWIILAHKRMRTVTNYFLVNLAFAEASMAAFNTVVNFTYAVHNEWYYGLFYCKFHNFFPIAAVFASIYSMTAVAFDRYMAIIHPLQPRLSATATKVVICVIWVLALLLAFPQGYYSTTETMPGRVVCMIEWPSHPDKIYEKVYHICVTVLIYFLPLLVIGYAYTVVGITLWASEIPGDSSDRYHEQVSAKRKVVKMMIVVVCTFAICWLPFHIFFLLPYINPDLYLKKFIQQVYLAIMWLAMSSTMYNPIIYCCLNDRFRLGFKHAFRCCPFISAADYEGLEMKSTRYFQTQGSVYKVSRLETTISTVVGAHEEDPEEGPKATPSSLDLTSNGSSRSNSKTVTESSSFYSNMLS
T3 sequence (P32300 whole entry): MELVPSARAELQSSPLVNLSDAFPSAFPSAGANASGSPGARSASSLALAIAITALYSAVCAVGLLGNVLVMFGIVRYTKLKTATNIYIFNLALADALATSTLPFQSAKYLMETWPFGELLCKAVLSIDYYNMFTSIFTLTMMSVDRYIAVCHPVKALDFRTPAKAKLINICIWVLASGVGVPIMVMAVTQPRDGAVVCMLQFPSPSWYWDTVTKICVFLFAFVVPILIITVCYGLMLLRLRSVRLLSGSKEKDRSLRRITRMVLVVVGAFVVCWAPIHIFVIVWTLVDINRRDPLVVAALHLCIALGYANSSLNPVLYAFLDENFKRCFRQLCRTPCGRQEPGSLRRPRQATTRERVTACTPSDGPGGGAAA
T4 sequence (P33535 whole entry): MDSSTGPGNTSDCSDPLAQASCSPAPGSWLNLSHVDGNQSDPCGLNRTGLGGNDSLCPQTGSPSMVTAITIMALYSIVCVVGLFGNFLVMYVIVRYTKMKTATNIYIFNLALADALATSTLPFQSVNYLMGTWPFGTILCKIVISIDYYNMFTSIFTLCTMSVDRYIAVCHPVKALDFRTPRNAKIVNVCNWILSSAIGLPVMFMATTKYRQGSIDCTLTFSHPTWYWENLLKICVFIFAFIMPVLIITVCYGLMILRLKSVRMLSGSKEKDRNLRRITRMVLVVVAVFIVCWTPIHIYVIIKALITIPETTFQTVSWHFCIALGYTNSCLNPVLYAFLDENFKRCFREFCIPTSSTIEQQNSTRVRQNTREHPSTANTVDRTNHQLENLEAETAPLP
T1 sequence (P41143 whole entry): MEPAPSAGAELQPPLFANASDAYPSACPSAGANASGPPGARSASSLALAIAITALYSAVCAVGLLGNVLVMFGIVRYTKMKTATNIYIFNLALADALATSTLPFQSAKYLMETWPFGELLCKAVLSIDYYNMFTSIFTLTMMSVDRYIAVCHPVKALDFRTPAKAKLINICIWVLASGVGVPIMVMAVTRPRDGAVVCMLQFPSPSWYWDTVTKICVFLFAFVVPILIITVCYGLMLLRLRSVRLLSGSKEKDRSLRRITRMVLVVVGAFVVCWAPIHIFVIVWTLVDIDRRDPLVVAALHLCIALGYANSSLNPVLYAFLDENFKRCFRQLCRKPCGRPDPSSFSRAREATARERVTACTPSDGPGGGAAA
T6 sequence (P25103 whole entry): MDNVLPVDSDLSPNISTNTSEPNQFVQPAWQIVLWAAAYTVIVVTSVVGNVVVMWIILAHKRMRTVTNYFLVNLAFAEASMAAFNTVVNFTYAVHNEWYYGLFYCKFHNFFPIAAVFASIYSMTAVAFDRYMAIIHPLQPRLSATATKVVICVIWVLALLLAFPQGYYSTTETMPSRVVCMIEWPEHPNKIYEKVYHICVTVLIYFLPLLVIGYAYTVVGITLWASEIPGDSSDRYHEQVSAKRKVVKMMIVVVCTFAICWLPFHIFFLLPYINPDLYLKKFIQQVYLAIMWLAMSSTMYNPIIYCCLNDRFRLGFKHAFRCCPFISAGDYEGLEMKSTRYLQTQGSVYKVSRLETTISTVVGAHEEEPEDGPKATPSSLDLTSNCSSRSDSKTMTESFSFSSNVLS
T5 sequence (P14600 whole entry): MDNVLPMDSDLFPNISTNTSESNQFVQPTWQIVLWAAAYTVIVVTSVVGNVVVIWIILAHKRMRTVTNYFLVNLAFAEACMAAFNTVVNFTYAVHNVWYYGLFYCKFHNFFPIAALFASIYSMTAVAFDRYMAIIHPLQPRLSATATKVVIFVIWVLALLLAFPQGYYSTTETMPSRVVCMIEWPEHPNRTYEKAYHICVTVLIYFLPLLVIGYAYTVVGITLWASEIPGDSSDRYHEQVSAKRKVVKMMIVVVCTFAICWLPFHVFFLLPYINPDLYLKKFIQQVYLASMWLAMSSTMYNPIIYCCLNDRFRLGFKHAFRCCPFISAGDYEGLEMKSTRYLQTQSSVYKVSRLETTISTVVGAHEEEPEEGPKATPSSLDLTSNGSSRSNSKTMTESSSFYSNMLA

Compound: C[C@@H](NC(=O)[C@@H](N)Cc1ccc(O)cc1)C(=O)NCC(=O)N[C@@H](Cc1ccccc1)C(=O)NCC(=O)N[C@@H](Cc1c[nH]c2ccccc12)C(=O)OCc1cc(C(F)(F)F)cc(C(F)(F)F)c1 [NP30] (HELM PEPTIDE1{Y.[dA].G.F.G.W.[FC(F)(F)c1cc(CO[*:1])cc(C(F)(F)F)c1]}$$$$V2.0; N-terminus assumed)
- IC50 [1, 8]: 25.7 nM

Compound: C[C@@H](NC(=O)[C@@H](N)Cc1ccc(O)cc1)C(=O)NCC(=O)N[C@@H](Cc1ccccc1)C(=O)NCCC(=O)N[C@@H](Cc1c[nH]c2ccccc12)C(=O)OCc1cc(C(F)(F)F)cc(C(F)(F)F)c1 [NP32] (HELM PEPTIDE1{Y.[dA].G.F.[bAla].W.[FC(F)(F)c1cc(CO[*:1])cc(C(F)(F)F)c1]}$$$$V2.0; N-terminus assumed)
- IC50 [1, 8]: 435 nM

Compound: C[C@@H](NC(=O)[C@@H](N)Cc1ccc(O)cc1)C(=O)NCC(=O)N[C@@H](Cc1ccccc1)C(=O)N[C@@H](Cc1c[nH]c2ccccc12)C(=O)OCc1cc(C(F)(F)F)cc(C(F)(F)F)c1 [NP36] (HELM PEPTIDE1{Y.[dA].G.F.W.[FC(F)(F)c1cc(CO[*:1])cc(C(F)(F)F)c1]}$$$$V2.0; N-terminus assumed)
- IC50 [1, 9]: 523 nM

Compound: CSCC[C@H](NC(=O)[C@H](Cc1ccccc1)NC(=O)CNC(=O)[C@@H](C)NC(=O)[C@@H](N)Cc1ccc(O)cc1)C(=O)N[C@@H](Cc1c[nH]c2ccccc12)C(=O)OCc1cc(C(F)(F)F)cc(C(F)(F)F)c1 [NP38] (HELM PEPTIDE1{Y.[dA].G.F.M.W.[FC(F)(F)c1cc(CO[*:1])cc(C(F)(F)F)c1]}$$$$V2.0; N-terminus assumed)
- EC50 ([2]; Table 32): 1.1 nM
- Emax [2, 10]: 36%
- IC50 [1, 8]: 393 nM
- Kb [3, 11]: 2 nM
- IC50 [4]: 9.07 nM
- EC50 [5, 12]: 0.8 nM
- Emax [5, 13]: 51%

Compound: C[C@@H](NC(=O)[C@H](Cc1ccccc1)NC(=O)CNC(=O)[C@@H](C)NC(=O)[C@@H](N)Cc1ccc(O)cc1)C(=O)N[C@@H](Cc1c[nH]c2ccccc12)C(=O)OCc1cc(C(F)(F)F)cc(C(F)(F)F)c1 [NP40] (HELM PEPTIDE1{Y.[dA].G.F.[dA].W.[FC(F)(F)c1cc(CO[*:1])cc(C(F)(F)F)c1]}$$$$V2.0; N-terminus assumed)
- EC50 ([2]; Table 32): 71.3 nM
- Emax [2, 10]: 89%
- IC50 [1, 8]: 528 nM
- Kb [3, 11]: 608 nM
- IC50 [4]: 58 nM
- EC50 [5, 12]: 93.1 nM
- Emax [5, 13]: 19%

Compound: C[C@@H](NC(=O)[C@@H](N)Cc1ccc(O)cc1)C(=O)NCC(=O)N[C@@H](Cc1c[nH]c2ccccc12)C(=O)OCc1cc(C(F)(F)F)cc(C(F)(F)F)c1 [NP44] (HELM PEPTIDE1{Y.[dA].G.W.[FC(F)(F)c1cc(CO[*:1])cc(C(F)(F)F)c1]}$$$$V2.0; N-terminus assumed)
- IC50 [1, 9]: 844 nM
- Kb ([3]; GPI SP-antagonist Ke (nM), Table 36): 5 nM
- Ki [6]: 3.4 nM
- IC50 [4]: 303 nM

Compound: C[C@@H](NC(=O)[C@@H](N)Cc1ccc(O)cc1)C(=O)NCC(=O)N[C@@H](Cc1ccc(Cl)cc1)C(=O)NCC(=O)N[C@@H](Cc1c[nH]c2ccccc12)C(=O)OCc1cc(C(F)(F)F)cc(C(F)(F)F)c1 [NP46] (HELM PEPTIDE1{Y.[dA].G.[O=C([C@H](Cc1ccc(Cl)cc1)N[*:1])[*:2]].G.W.[FC(F)(F)c1cc(CO[*:1])cc(C(F)(F)F)c1]}$$$$V2.0; N-terminus assumed)
- IC50 ([1]; Table 37, read-out: GPI μ-agonist IC50): 124 nM

Compound: Cc1cc(O)cc(C)c1C[C@H](N)C(=O)N[C@H](C)C(=O)N[C@@H](Cc1c[nH]c2ccccc12)C(=O)OCc1cc(C(F)(F)F)cc(C(F)(F)F)c1 [NP48]
- GPI μ-agonist, % at 1 μM ([1]; Table 36, at 1 μM): 20.4% at 1 μM
- IC50 [4]: 408 nM

Compound: CC(C)C[C@H](NC(=O)[C@@H]1CCCN1C(=O)[C@H](Cc1ccccc1)NC(=O)[C@H](Cc1ccccc1)NC(=O)CNC(=O)[C@@H](C)NC(=O)[C@@H](N)Cc1ccc(O)cc1)C(=O)N[C@@H](Cc1c[nH]c2ccccc12)C(=O)NCc1cc(C(F)(F)F)cc(C(F)(F)F)c1 [TY015] (HELM PEPTIDE1{Y.[dA].G.F.F.P.L.W.[FC(F)(F)c1cc(CN[*:1])cc(C(F)(F)F)c1]}$$$$V2.0; N-terminus assumed)
- Emax [2, 14]: 142%
- EC50 ([5]; Table 39, read-out: GTP binding rMOR EC50): 176 nM
- Emax [5, 15]: 64.4%

Compound: CC(C)C[C@H](NC(=O)[C@@H]1CCCN1C(=O)[C@H](Cc1ccccc1)NC(=O)[C@H](Cc1ccccc1)NC(=O)CNC(=O)[C@@H](C)NC(=O)[C@@H](N)Cc1ccc(O)cc1)C(=O)N[C@@H](Cc1c[nH]c2ccccc12)C(=O)N(C)Cc1cc(C(F)(F)F)cc(C(F)(F)F)c1 [TY017] (HELM PEPTIDE1{Y.[dA].G.F.F.P.L.W.[CN(Cc1cc(C(F)(F)F)cc(C(F)(F)F)c1)[*:1]]}$$$$V2.0; N-terminus assumed)
- Emax [2, 14]: 125%
- Emax [5, 15]: 62.4%

Compound: CSCC[C@H](NC(=O)[C@H](Cc1ccccc1)NC(=O)CNC(=O)[C@@H](C)NC(=O)[C@@H](N)Cc1ccc(O)cc1)C(=O)N[C@H](CC(C)C)C(=O)N[C@@H](CC(C)C)C(=O)N[C@@H](Cc1c[nH]c2ccccc12)C(=O)OCc1cc(C(F)(F)F)cc(C(F)(F)F)c1 [TY021] (HELM PEPTIDE1{Y.[dA].G.F.M.[dL].L.W.[FC(F)(F)c1cc(CO[*:1])cc(C(F)(F)F)c1]}$$$$V2.0)
- Emax [2, 14]: 41.1%
- Emax [5, 15]: 51.4%

Compound: CSCC[C@H](NC(=O)[C@H](Cc1ccccc1)NC(=O)CNC(=O)[C@@H](C)NC(=O)[C@@H](N)Cc1ccc(O)cc1)C(=O)NC(C)(C)C(=O)N[C@@H](CC(C)C)C(=O)N[C@@H](Cc1c[nH]c2ccccc12)C(=O)OCc1cc(C(F)(F)F)cc(C(F)(F)F)c1 [TY022]
- Emax [5, 15]: 32%

Compound: CSCC[C@H](NC(=O)[C@H](Cc1ccccc1)NC(=O)CNC(=O)[C@@H](C)NC(=O)[C@@H](N)Cc1ccc(O)cc1)C(=O)N1CCC[C@@H]1C(=O)N[C@@H](CC(C)C)C(=O)N[C@@H](Cc1c[nH]c2ccccc12)C(=O)OCc1cc(C(F)(F)F)cc(C(F)(F)F)c1 [TY024]
- Emax ([2]; read-out: GTP binding hDOR Emax): 21%
- Emax ([5]; read-out: GTP binding rMOR Emax): 28%

Compound: CSCC[C@H](NC(=O)[C@H](Cc1ccccc1)NC(=O)CNC(=O)[C@@H](C)NC(=O)[C@@H](N)Cc1ccc(O)cc1)C(=O)N1CCC[C@H]1C(=O)N[C@@H](CC(C)C)C(=O)N[C@@H](Cc1c[nH]c2ccccc12)C(=O)N(C)Cc1cc(C(F)(F)F)cc(C(F)(F)F)c1 [TY028]
- Emax [2, 14]: 59%
- IC50 [1, 16]: 971 nM
- Kb ([3]; GPI/LMMP SP antagonist (Ke; nM), Table 39): 4.6 nM
- IC50 [4]: 11.2 nM
- Emax [5, 15]: 52%

Compound: COc1cc(COC(=O)[C@H](Cc2c[nH]c3ccccc23)NC(=O)[C@H](CC(C)C)NC(=O)[C@@H]2CCCN2C(=O)[C@H](CCSC)NC(=O)[C@H](Cc2ccccc2)NC(=O)CNC(=O)[C@@H](C)NC(=O)[C@@H](N)Cc2ccc(O)cc2)cc(OC)c1 [TY030]
- Emax [2, 14]: 61%
- IC50 [1, 16]: 31 nM
- Emax [5, 15]: 59%

Compound: CSCC[C@H](NC(=O)[C@H](Cc1ccccc1)NC(=O)CNC(=O)[C@@H](CS)NC(=O)[C@@H](N)Cc1ccc(O)cc1)C(=O)N1CCC[C@H]1C(=O)N[C@@H](CC(C)C)C(=O)N[C@@H](Cc1c[nH]c2ccccc12)C(=O)OCc1cc(C(F)(F)F)cc(C(F)(F)F)c1 [TY031] (HELM PEPTIDE1{Y.[dC].G.F.M.P.L.W.[FC(F)(F)c1cc(CO[*:1])cc(C(F)(F)F)c1]}$$$$V2.0; N-terminus assumed)
- IC50 [4]: 235 nM

Compound: CCCC[C@H](NC(=O)[C@H](Cc1ccccc1)NC(=O)CNC(=O)[C@@H](C)NC(=O)[C@@H](N)Cc1c(C)cc(O)cc1C)C(=O)N1CCC[C@H]1C(=O)N[C@@H](CC(C)C)C(=O)N[C@@H](Cc1c[nH]c2ccccc12)C(=O)NCc1cc(C(F)(F)F)cc(C(F)(F)F)c1 [TY050]
- Emax [5, 15]: 45%

Compound: CSCC[C@H](N)C(=O)N1CCC[C@H]1C(=O)N[C@@H](CC(C)C)C(=O)N[C@@H](Cc1c[nH]c2ccccc12)C(=O)NCc1cc(C(F)(F)F)cc(C(F)(F)F)c1 [TY051] (HELM PEPTIDE1{M.P.L.W.[FC(F)(F)c1cc(CN[*:1])cc(C(F)(F)F)c1]}$$$$V2.0; N-terminus assumed)
- GTP binding rMOR EC50 ([5]; Table 39): no response

Compound: CCCC[C@H](NC(=O)[C@H](Cc1ccccc1)NC(=O)CNC(=O)[C@@H](C)NC(=O)[C@@H](N)Cc1c(C)cc(O)cc1C)C(=O)N1CCC[C@H]1C(=O)N[C@@H](CC(C)C)C(=O)N[C@@H](Cc1c[nH]c2ccccc12)C(=O)NCc1cccc(C(F)(F)F)c1 [TY053]
- Ki [7]: 1.04 nM
- Emax [5, 15]: 20%

Reference: patent US8026218B2, “Bifunctional analgesic compounds for opioid receptor agonists and neurokinin-1 receptor antagonists” (The University of Arizona, priority 2006, dated 2011)
